Measured values from patent US20140162285A1, “Methods of Modulating Vesicular Trafficking” (The General Hospital Corporation, priority 2009, published 2014).
Peptide text beside a SMILES is read from it. * marks the point of attachment. Biotin = O=C1N[C@H]2[C@H](CS[C@H]2CCCCC(=O)*)N1

Molecular target: T1, Sec7-domain of ARNO (Homo sapiens, UniProt Q99418)
T1 construct: iii) 61-252aa, Sec7 domain; GST (N, cleaved yes); made in house; host or cells: E. coli BL21(DE3)
T1 sequence (Q99418 61-252): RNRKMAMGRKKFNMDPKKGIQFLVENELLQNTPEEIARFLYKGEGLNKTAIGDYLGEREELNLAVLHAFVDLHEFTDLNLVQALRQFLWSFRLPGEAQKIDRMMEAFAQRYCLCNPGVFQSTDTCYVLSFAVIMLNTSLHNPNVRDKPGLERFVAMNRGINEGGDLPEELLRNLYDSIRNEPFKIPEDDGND
Test: surface plasmon resonance (BIAcore T100) kinetic analysis a2N-01 peptide/Sec7-domain
Assay type: binding
Conditions: ΔGbind=RTlnKD
Text: 6A, Kinetic analysis and estimation of a dissociation constant (KD) for interaction between full-length a2N(wt) and ARNO(wt) proteins. Sensorgrams for the binding of recombinant a2N-6His immobilized as ligand on the sensor chip, with various concentrations of 6His-ARNO as analyte are shown as follows. The responses on the sensorgram are designated in resonance units (RU). […] 6B, Kinetic analysis and estimation of KD for interaction between a2N-01 peptide and Sec7-domain of ARNO. Sensorgrams for the binding of a2N-01 peptide immobilized as ligand on the sensor chip, with various concentrations of Sec7-domain as analyte are shown as follows. The responses on the sensorgram are designated in resonance units (RU).
All reagents, including buffers, sensor chips and the amine coupling kit, were obtained from GE Healthcare. […] Dissociation of the complexes was monitored for 10 min, and then the regeneration of the sensor surfaces was performed using 0.05% SDS with 1-min injection in the running buffer at a 20 μl/min flow rate. […] The dissociation constant (KD) was determined from the kon/koff values. To estimate affinity of interaction the corresponding free energy of binding ΔGbind=RTlnKD was calculated as previously described (Marles et al., Mol Cell 14 (2004) 813-823). […]

CSCC[C@H](NC(=O)CCCC[C@@H]1SC[C@@H]2NC(=O)N[C@@H]21)C(=O)NCC(=O)N[C@@H](CO)C(=O)N[C@@H](CC(C)C)C(=O)N[C@@H](Cc1ccccc1)C(=O)N[C@@H](CCCNC(=N)N)C(=O)N[C@@H](CO)C(=O)N[C@@H](CCC(=O)O)C(=O)N[C@@H](CO)C(=O)N[C@@H](CCSC)C(=O)N[C@@H](CS)C(=O)N[C@@H](CC(C)C)C(=O)N[C@@H](C)C(=O)N[C@@H](CCC(N)=O)C(=O)N[C@@H](CC(C)C)C(=O)N[C@@H](Cc1ccccc1)C(=O)N[C@@H](CC(C)C)C(=O)N[C@@H](CS)C(=O)O [a2N-01, Bio-MGSLFRSE SMCLAQLFL-Cys] (Biotin-MGSLFRSESMCLAQLFLC-OH; N-terminus and C-terminus assumed) was tested, and the “calculated free energy of binding” value was -8.81 kcal/mol.
